For one compound, solubility results are on record in US20180355390A1, “Method to produce L-methionine by a fermentative production” (Evonik Degussa GmbH, priority 2016, published 2018).

Converted amounts (≈) assume the structure as drawn.

A short description of data set [1]: physchem. The settings on record: Residual solubility L-Methionine. The procedure: The amount of product in the fermentation medium or in the different downstream process fluxes such as supernatant, permeate or mother liquors of crystallization can be determined using a number of methods known in the art, for example, high performance liquid chromatography (HPLC) or gas chromatography (GC). For example the quantity of methionine obtained in the medium is measured by HPLC after OPA/FMOC derivatization using L-methionine (Fluka, Ref 64319) as a standard.
Different solvents were assayed on the fermentation concentrated supernatant issued from step ii) with the same ratio of 70% (solvent/(methionine containing fraction+solvent), in weight).

A short description of data set [2]: physchem. The protocol: The methionine solubility at 35° C. is approximately 70 g/L. If the solution is concentrated to approximately 250 g/L, under a vacuum ensuring a temperature of 35° C., the solid methionine recovery yield is >70%. Under these conditions, and by virtue of the removal of the soluble impurities, the solid methionine crystallizes in the form of spongy spheres which are easy to separate from the mother liquors.
The fermentation supernatant issued from step ii) was concentrated to approximately 250 g·L^−1 and ethanol has been added at different proportions 0%, 30% and 70% (corresponding to the ratio solvent/(methionine containing fraction+solvent) in weight). The theoretical yield of recovery has been determined in function of ethanol content.

Regarding `CSCC[C@H](N)C(=O)O` [L-methionine], the solubility in data set [1] (concentrated fermentation supernatant with added solvent, 4 °C, aqueous with cosolvent or surfactant or cyclodextrin, Ethanol, ratio 70% by weight) was 4000 to 5000 µg/mL; in data set [1] (concentrated fermentation supernatant with added solvent, 4 °C, aqueous with cosolvent or surfactant or cyclodextrin, Isopropanol, ratio 70% by weight), 4000 to 5000 µg/mL; in data set [1] (concentrated fermentation supernatant with added solvent, 4 °C, aqueous with cosolvent or surfactant or cyclodextrin, Methanol, ratio 70% by weight), 5000 to 6000 µg/mL; in data set [1] (concentrated fermentation supernatant with added solvent, aqueous with cosolvent or surfactant or cyclodextrin, 2-Butanone, ratio 70% by weight, room temperature), greater than 15000 µg/mL; in data set [1] (concentrated fermentation supernatant with added solvent, aqueous with cosolvent or surfactant or cyclodextrin, Acetonitrile, ratio 70% by weight, room temperature), 5500 to 6500 µg/mL; in data set [1] (concentrated fermentation supernatant with added solvent, aqueous with cosolvent or surfactant or cyclodextrin, Ethanol, ratio 70% by weight, room temperature), 5000 to 6000 µg/mL. In addition, the solubility is 5000 to 6000 µg/mL in data set [1] (concentrated fermentation supernatant with added solvent, aqueous with cosolvent or surfactant or cyclodextrin, Isopropanol, ratio 70% by weight, room temperature); 7000 to 8000 µg/mL in data set [1] (concentrated fermentation supernatant with added solvent, aqueous with cosolvent or surfactant or cyclodextrin, Methanol, ratio 70% by weight, room temperature); 65000 µg/mL (≈ 436 mM) in data set [1] (concentrated fermentation supernatant, plasma or biological fluid, no solvent (Reference), room temperature); roughly 70000 µg/mL (≈ 469 mM) in data set [2] (35 °C); roughly 70000 µg/mL (≈ 469 mM) in data set [2] (37 °C).

Usually solubility stands for the concentration that dissolves in the medium under given conditions.
